From patent US11622991B2, “Protocol for treatment of lupus nephritis” (Aurinia Pharmaceuticals Inc., priority 2017, dated 2023)

Test system: lupus nephritis
Assay: Predictability of week 48 partial remission from early reduction in UPCR (Tables 4-8)
Format: in vivo, human
Description: In the study reported in Example 1, the predictability of outcomes based on markers at early time points were determined.
This is important because it is undesirable to subject a patient to unnecessary treatment, even if the treatment is relatively safe.
PR is defined as at least 50% reduction in proteinuria (i.e. UPCR).
Sensitivity is defined as the probability that a subject showing PR at 48 weeks would have shown a favorable result with regard to the marker at the designated early time point. In the tables below, this is the ratio of the number of subjects with favorable marker results (early drop or normalization) to the total subjects with 48 week PR.
Specificity is defined as the probability that a subject not showing PR at 48 weeks would have shown an unfavorable result with regard to the marker at the designated early time point. In the tables below, this is the ratio of the number of subjects with unfavorable marker results (no early drop or no normalization) to the total subjects with no 48 week PR.
Positive predictive value is defined as the probability that a subject showing a favorable result with respect to the marker at an earlier time point would show PR at 48 weeks. In the tables below, this is the ratio of the number of subjects with favorable marker results who have 48 week PR to those with favorable marker results (early reduction or yes column).
Negative predictive value is defined as the probability that a subject showing an unfavorable result with respect to the marker at an earlier time point would not show PR at 48 weeks. In the tables below, this is the ratio of the number of subjects with unfavorable marker results who have no PR at 48 weeks to the total subjects with unfavorable marker results (no early reduction or no column).

[1] = 25% reduction in UPCR, Week 26, 23.7 mg BID
[2] = 25% reduction in UPCR, Week 26, 39.5 mg BID
[3] = 25% reduction in UPCR, Week 36, 23.7 mg BID
[4] = 25% reduction in UPCR, Week 36, 39.5 mg BID
[5] = 25% reduction in UPCR, Week 48, 23.7 mg BID
[6] = 25% reduction in UPCR, Week 48, 39.5 mg BID
[7] = early 30% reduction in UPCR, week 2, 39.5 mg BID
[8] = early 30% reduction in UPCR, week 6, 23.7 mg BID
[9] = early 30% reduction in UPCR, week 8, 23.7 mg BID
[10] = early 30% reduction in UPCR, week 8, 39.5 mg BID
[11] = early 30% reduction in UPCR, week 12, 39.5 mg BID
[12] = early 30% reduction in UPCR, week 16, 23.7 mg BID
[13] = early 30% reduction in UPCR, week 16, 39.5 mg BID
[14] = early 30% reduction in UPCR, week 20, 23.7 mg BID
[15] = early 30% reduction in UPCR, week 24, 23.7 mg BID
[16] = early 30% reduction in UPCR, week 24, 39.5 mg BID
[17] = early 30% reduction in UPCR, week 26, 23.7 mg BID
[18] = early 30% reduction in UPCR, week 26, 39.5 mg BID
[19] = early 30% reduction in UPCR, week 36, 23.7 mg BID
[20] = early 30% reduction in UPCR, week 36, 39.5 mg BID
[21] = early 30% reduction in UPCR, week 48, 23.7 mg BID
[22] = early 30% reduction in UPCR, week 48, 39.5 mg BID
[23] = early 35% reduction in UPCR, week 2, 39.5 mg BID
[24] = early 35% reduction in UPCR, week 6, 23.7 mg BID
[25] = early 35% reduction in UPCR, week 8, 23.7 mg BID
[26] = early 35% reduction in UPCR, week 8, 39.5 mg BID
[27] = early 35% reduction in UPCR, week 12, 23.7 mg BID
[28] = early 35% reduction in UPCR, week 12, 39.5 mg BID
[29] = early 35% reduction in UPCR, week 16, 23.7 mg BID
[30] = early 35% reduction in UPCR, week 16, 39.5 mg BID
[31] = early 35% reduction in UPCR, week 20, 23.7 mg BID
[32] = early 35% reduction in UPCR, week 24, 23.7 mg BID
[33] = early 35% reduction in UPCR, week 24, 39.5 mg BID
[34] = early 35% reduction in UPCR, week 26, 23.7 mg BID
[35] = early 35% reduction in UPCR, week 26, 39.5 mg BID
[36] = early 35% reduction in UPCR, week 36, 23.7 mg BID
[37] = early 35% reduction in UPCR, week 36, 39.5 mg BID
[38] = early 35% reduction in UPCR, week 48, 23.7 mg BID

C=C/C=C/C[C@@H](C)[C@@H](O)[C@H]1C(=O)N[C@@H](CC)C(=O)N(C)CC(=O)N(C)[C@@H](CC(C)C)C(=O)N[C@@H](C(C)C)C(=O)N(C)[C@@H](CC(C)C)C(=O)N[C@@H](C)C(=O)N[C@H](C)C(=O)N(C)[C@@H](CC(C)C)C(=O)N(C)[C@@H](CC(C)C)C(=O)N(C)[C@@H](C(C)C)C(=O)N1C [voclosporin]
8: No Week 48 Partial Remission Early Drop [1] | Early Reduction No [4] | No Week 48 Partial Remission No Early Drop [8] | Week 48 Partial Remission No Early Drop [13] | Early Reduction No [18] | No Week 48 Partial Remission Early Drop [21] | No Week 48 Partial Remission No Early Drop (early 35% reduction in UPCR, week 4, 39.5 mg BID) | Week 48 Partial Remission No Early Drop [25] | Week 48 Partial Remission No Early Drop [26] | Week 48 Partial Remission No Early Drop [30] | No Week 48 Partial Remission Early Drop [31] | No Week 48 Partial Remission No Early Drop [31] | No Week 48 Partial Remission Early Drop [32] | Early Reduction No [34]
10: No Week 48 Partial Remission Early Drop [3] | No Week 48 Partial Remission Early Drop [8] | Week 48 Partial Remission No Early Drop [8] | No Week 48 Partial Remission Early Drop [9] | Early Reduction No [12] | Early Reduction No [14] | Early Reduction No (early 30% reduction in UPCR, week 20, 39.5 mg BID) | No Week 48 Partial Remission Early Drop [19] | No Week 48 Partial Remission No Early Drop [25] | No Week 48 Partial Remission Early Drop [27] | Week 48 Partial Remission No Early Drop [28]
39: Early Reduction Yes [23]
4: No Week 48 Partial Remission No Early Drop [1] | No Week 48 Partial Remission No Early Drop [2] | Early Reduction No [3] | No Week 48 Partial Remission No Early Drop [10] | No Week 48 Partial Remission No Early Drop [11] | Early Reduction No [15] | Early Reduction No [19] | No Week 48 Partial Remission No Early Drop [26] | No Week 48 Partial Remission No Early Drop [28] | Week 48 Partial Remission No Early Drop [29] | No Week 48 Partial Remission No Early Drop [36] | Early Reduction No [38] | No Week 48 Partial Remission No Early Drop [38] | No Week 48 Partial Remission Early Drop (early 35% reduction in UPCR, week 48, 39.5 mg BID)
29: Week 48 Partial Remission No Early Drop [7]
3: No Week 48 Partial Remission No Early Drop [3] | Week 48 Partial Remission No Early Drop [12] | Week 48 Partial Remission No Early Drop [14] | No Week 48 Partial Remission No Early Drop [15] | Week 48 Partial Remission No Early Drop [18] | No Week 48 Partial Remission No Early Drop [19] | Early Reduction No [21] | No Week 48 Partial Remission No Early Drop [21] | Week 48 Partial Remission No Early Drop [31] | Week 48 Partial Remission No Early Drop [34]
2: Week 48 Partial Remission No Early Drop [4] | Early Reduction No [5] | No Week 48 Partial Remission No Early Drop [5] | Week 48 Partial Remission No Early Drop [20] | Week 48 Partial Remission No Early Drop [37]
16: Week 48 Partial Remission No Early Drop (early 30% reduction in UPCR, week 4, 39.5 mg BID) | Week 48 Partial Remission No Early Drop (early 30% reduction in UPCR, week 6, 39.5 mg BID) | Week 48 Partial Remission No Early Drop (early 35% reduction in UPCR, week 6, 39.5 mg BID)
1: Week 48 Partial Remission No Early Drop [2] | Week 48 Partial Remission No Early Drop [3] | Week 48 Partial Remission No Early Drop [15] | Week 48 Partial Remission No Early Drop [17] | Week 48 Partial Remission No Early Drop [19] | Week 48 Partial Remission No Early Drop [32] | Week 48 Partial Remission No Early Drop [36]
7: No Week 48 Partial Remission Early Drop [6] | Week 48 Partial Remission No Early Drop [9] | Week 48 Partial Remission No Early Drop [10] | No Week 48 Partial Remission No Early Drop (early 30% reduction in UPCR, week 12, 23.7 mg BID) | Week 48 Partial Remission No Early Drop [11] | No Week 48 Partial Remission No Early Drop [12] | No Week 48 Partial Remission No Early Drop [13] | No Week 48 Partial Remission No Early Drop [14] | No Week 48 Partial Remission No Early Drop [16] | No Week 48 Partial Remission Early Drop [17] | No Week 48 Partial Remission No Early Drop [20] | Week 48 Partial Remission No Early Drop [27] | No Week 48 Partial Remission No Early Drop [29] | No Week 48 Partial Remission No Early Drop [30] | Early Reduction No [32] | No Week 48 Partial Remission No Early Drop [33] | No Week 48 Partial Remission Early Drop [34] | No Week 48 Partial Remission No Early Drop [37] | No Week 48 Partial Remission Early Drop [38]
31: Week 48 Partial Remission Early Drop [7]
9: No Week 48 Partial Remission Early Drop [5] | Early Reduction No [6] | No Week 48 Partial Remission No Early Drop [6] | No Week 48 Partial Remission No Early Drop [9] | No Week 48 Partial Remission Early Drop [14] | Week 48 Partial Remission No Early Drop [16] | Early Reduction No [20] | No Week 48 Partial Remission Early Drop [24] | No Week 48 Partial Remission No Early Drop [24] | No Week 48 Partial Remission Early Drop [25] | No Week 48 Partial Remission No Early Drop [27] | Week 48 Partial Remission No Early Drop [33] | No Week 48 Partial Remission Early Drop [36] | Early Reduction No [37]
11: No Week 48 Partial Remission Early Drop [7] | No Week 48 Partial Remission Early Drop (early 30% reduction in UPCR, week 4, 23.7 mg BID) | Early Reduction No [10] | Early Reduction No [11] | No Week 48 Partial Remission Early Drop [12] | No Week 48 Partial Remission Early Drop [15] | No Week 48 Partial Remission Early Drop [18] | No Week 48 Partial Remission Early Drop [20] | Early Reduction No [22] | No Week 48 Partial Remission No Early Drop [22] | No Week 48 Partial Remission Early Drop [23] | No Week 48 Partial Remission Early Drop (early 35% reduction in UPCR, week 4, 23.7 mg BID) | Early Reduction No [29] | No Week 48 Partial Remission Early Drop [29] | Early Reduction No [31] | Early Reduction No (early 35% reduction in UPCR, week 20, 39.5 mg BID) | Early Reduction No [35] | No Week 48 Partial Remission Early Drop [35] | No Week 48 Partial Remission Early Drop [37]
32: Week 48 Partial Remission No Early Drop [23]
